Target: T1, human mAChR M4 (Homo sapiens, UniProt P08173)
T1 construct: expressed in transfected cells; host or cells: CHO-K1 (American Type Culture Collection), stably expressing hM4 and Gqi5
T1 sequence (P08173 1-479): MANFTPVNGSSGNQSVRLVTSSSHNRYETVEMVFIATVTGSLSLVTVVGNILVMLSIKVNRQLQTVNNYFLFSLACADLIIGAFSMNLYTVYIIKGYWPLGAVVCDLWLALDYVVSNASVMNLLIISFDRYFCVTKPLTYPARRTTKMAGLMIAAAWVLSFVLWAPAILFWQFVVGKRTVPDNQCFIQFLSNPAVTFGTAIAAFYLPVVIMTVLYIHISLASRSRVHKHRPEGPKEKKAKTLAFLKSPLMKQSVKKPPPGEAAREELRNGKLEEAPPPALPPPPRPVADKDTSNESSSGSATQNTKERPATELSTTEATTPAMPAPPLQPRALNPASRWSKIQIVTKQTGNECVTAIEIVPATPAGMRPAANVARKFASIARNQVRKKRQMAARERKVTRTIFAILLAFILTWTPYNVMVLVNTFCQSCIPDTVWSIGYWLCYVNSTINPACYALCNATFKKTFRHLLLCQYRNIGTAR
Test: mAChR M4 cell-based functional assay: calcium mobilization (Fluo-4, FDSS), potentiation of EC20 acetylcholine response in hM4-Gqi5 CHO-K1 cells
Settings: human M4; for Emax at 30 µM: CHO-K1, % ACh maximum at 30 μM; for EC50: potentiation of EC20 acetylcholine response, calcium mobilization
Summary of the method: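 CHO-K1 cells stably co-expressing human M4 and chimeric Gqi5, loaded with Fluo-4 AM (50 min, 37 °C). Compounds in 11-point 1:3 series added first; EC20 acetylcholine added at 144 s and again at 230 s. Calcium read on FDSS at 1 Hz; EC50 and Emax from four-parameter logistic fit of potentiated EC20 response.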

| Emax at 30 µM | EC50 | SMILES |
| --- | --- | --- |
| 96% | 410 nM | Cc1c(N2CCc3ncc(-c4ccnnc4)cc3C2)nn2c(=O)ccnc2c1C [Compound 1-141, 8,9-dimethyl-7-(3-(pyridazin-4-yl)-7,8-dihydro-1,6-naphthyridin-6(5H)-yl)-4H-pyrimido[1,2-b]pyridazin-4-one] |
| 92% | 612 nM | Cc1cc2nc(C(=O)N3CCC(c4cccnc4)C3)cc(=O)n2nc1N1CCc2ncc(C(F)(F)F)cc2C1 (stereo not shown) [Compound 1-43, 8-methyl-2-(3-(pyridin-3-yl)pyrrolidine-1-carbonyl)-7-(3-(trifluoromethyl)-7,8-dihydro-1,6-naphthyridin-6(5H)-yl)-4H-pyrimido[1,2-b]pyridazin-4-one] |
| 70% | 863 nM | CCN(CC)c1cnc2c(c1)CN(c1nn3c(=O)ccnc3cc1C)CC2 [Compound 2-92, 7-(3-(diethylamino)-7,8-dihydro-1,6-naphthyridin-6(5H)-yl)-8-methyl-4H-pyrimido[1,2-b]pyridazin-4-one] |
| 48% | 1370 nM | Cc1cc(=O)n2nc(N3CCc4ncc(-c5ccccc5OC(F)(F)F)cc4C3)c(C)cc2n1 [Compound 1-254, 2,8-dimethyl-7-(3-(2-(trifluoromethoxy)phenyl)-7,8-dihydro-1,6-naphthyridin-6(5H)-yl)-4H-pyrimido[1,2-b]pyridazin-4-one] |
| 84% | 3410 nM | Cc1cc(=O)n2nc(N3CCc4ncc(-c5cncc(C(F)(F)F)c5)cc4C3)c(C)c(C)c2n1 [Compound 1-124, 2,8,9-trimethyl-7-(3-(5-(trifluoromethyl)pyridin-3-yl)-7,8-dihydro-1,6-naphthyridin-6(5H)-yl)-4H-pyrimido[1,2-b]pyridazin-4-one] |
| 99% | 245 nM | Cc1cc(=O)n2nc(N3CCc4ncc(-c5cnn(C)c5C)cc4C3)c(C)cc2n1 [Compound 1-294, 7-(3-(1,5-dimethyl-1H-pyrazol-4-yl)-7,8-dihydro-1,6-naphthyridin-6(5H)-yl)-2,8-dimethyl-4H-pyrimido[1,2-b]pyridazin-4-one] |
| 70% | 656 nM | Cc1cncc(-c2cnc3c(c2)CN(c2nn4c(=O)ccnc4cc2C)CC3)c1 [Compound 1-65, 8-methyl-7-(3-(5-methylpyridin-3-yl)-7,8-dihydro-1,6-naphthyridin-6(5H)-yl)-4H-pyrimido[1,2-b]pyridazin-4-one] |
| 79% | 263 nM | Cc1cc2nccc(=O)n2nc1N1CCc2ncc(Nc3ccc(Cl)nc3)cc2C1 [Compound 2-126, 7-(3-((6-chloropyridin-3-yl)amino)-7,8-dihydro-1,6-naphthyridin-6(5H)-yl)-8-methyl-4H-pyrimido[1,2-b]pyridazin-4-one] |
| 77% | 1470 nM | COCc1cc(=O)n2nc(N3CCc4ncc(-c5cc(F)ncc5F)cc4C3)c(C)cc2n1 [Compound 1-320, 7-(3-(2,5-difluoropyridin-4-yl)-7,8-dihydro-1,6-naphthyridin-6(5H)-yl)-2-(methoxymethyl)-8-methyl-4H-pyrimido[1,2-b] pyridazin-4-one] |
| 87% | 747 nM | Cc1cc2nccc(=O)n2nc1N1CCc2ncc(Nc3cncc(C(F)(F)F)c3)cc2C1 [Compound 2-138, 8-methyl-7-(3-((5-(trifluoromethyl)pyridin-3-yl)amino)-7,8-dihydro-1,6-naphthyridin-6(5H)-yl)-4H-pyrimido[1,2-b]pyridazin-4-one] |
| 93% | 169 nM | Cc1cc(F)ncc1-c1cnc2c(c1)CN(c1nn3c(=O)ccnc3cc1C)CC2 [Compound 1-398, 7-(3-(6-fluoro-4-methylpyridin-3-yl)-7,8-dihydro-1,6-naphthyridin-6(5H)-yl)-8-methyl-4H-pyrimido[1,2-b]pyridazin-4-one] |
| 103% | 88 nM | Cc1ccc(-c2cnc3c(c2)CN(c2nn4c(=O)cc(C(F)F)nc4cc2C)CC3)cn1 [Compound 1-81, 2-(difluoromethyl)-8-methyl-7-(3-(6-methylpyridin-3-yl)-7,8-dihydro-1,6-naphthyridin-6(5H)-yl)-4H-pyrimido[1,2-b]pyridazin-4-one] |
| 56% | 859 nM | Cc1cc(=O)n2nc(N3CCc4ncc(-c5ccccc5C5CC5)cc4C3)c(C)cc2n1 [Compound 1-231, 7-(3-(2-cyclopropylphenyl)-7,8-dihydro-1,6-naphthyridin-6(5H)-yl)-2,8-dimethyl-4H-pyrimido[1,2-b]pyridazin-4-one] |
| 60% | 655 nM | Cc1cc(=O)n2nc(N3CCc4ncc(-c5cn6ccnc6cc5C)cc4C3)c(C)cc2n1 [Compound 1-217, 2,8-dimethyl-7-(3-(7-methylimidazo[1,2-a]pyridin-6-yl)-7,8-dihydro-1,6-naphthyridin-6(5H)-yl)-4H-pyrimido[1,2-b]pyridazin-4-one] |

The next lines start with the compound.

| SMILES | Emax at 30 µM | EC50 |
| --- | --- | --- |
| Cc1c(N2CCc3ncc(-c4cnn(C(F)F)c4)cc3C2)nn2c(=O)ccnc2c1C [Compound 1-339, 7-(3-(1-(difluoromethyl)-1H-pyrazol-4-yl)-7,8-dihydro-1,6-naphthyridin-6(5H)-yl)-8,9-dimethyl-4H-pyrimido[1,2-b]pyridazin-4-one] | 77% | 230 nM |
| Cc1cc(Cl)c(-c2cnc3c(c2)CN(c2nn4c(=O)cc(C(F)F)nc4c(C)c2C)CC3)cn1 [Compound 1-187, 7-(3-(4-chloro-6-methylpyridin-3-yl)-7,8-dihydro-1,6-naphthyridin-6(5H)-yl)-2-(difluoromethyl)-8,9-dimethyl-4H-pyrimido[1,2-b]pyridazin-4-one] | 95% | 109 nM |
| Cc1cc(=O)n2nc(N3CCc4ncc(-c5cnn(-c6ccccn6)c5)cc4C3)c(C)c(C)c2n1 [Compound 1-175, 2,8,9-trimethyl-7-(3-(1-(pyridin-2-yl)-1H-pyrazol-4-yl)-7,8-dihydro-1,6-naphthyridin-6(5H)-yl)-4H-pyrimido[1,2-b]pyridazin-4-one] | 61% | 4660 nM |
| Cc1c(N2CCc3ncc(-c4cnn(C(F)F)c4)cc3C2)nn2c(=O)cc(C(F)F)nc2c1C [Compound 1-172, 2-(difluoromethyl)-7-(3-(1-(difluoromethyl)-1H-pyrazol-4-yl)-7,8-dihydro-1,6-naphthyridin-6(5H)-yl)-8,9-dimethyl-4H-pyrimido[1,2-b]pyridazin-4-one] | 85% | 114 nM |
| Cc1cc(=O)n2nc(N3CCc4ncc(-c5cnc(Cl)cc5C)cc4C3)c(C)c(C)c2n1 [Compound 1-197, 7-(3-(6-chloro-4-methylpyridin-3-yl)-7,8-dihydro-1,6-naphthyridin-6(5H)-yl)-2,8,9-trimethyl-4H-pyrimido[1,2-b]pyridazin-4-one] | 81% | 275 nM |
| Cc1c(N2CCc3ncc(-c4ccc(N5CCOCC5)nc4)cc3C2)nn2c(=O)ccnc2c1C [Compound 1-99, 8,9-dimethyl-7-(3-(6-morpholinopyridin-3-yl)-7,8-dihydro-1,6-naphthyridin-6(5H)-yl)-4H-pyrimido[1,2-b]pyridazin-4-one] | 88% | 190 nM |
| Cc1cc(=O)n2nc(N3CCc4ncc(-c5ccc(F)nc5)cc4C3)c(C)c(C)c2n1 [Compound 1-204, 7-(3-(6-fluoropyridin-3-yl)-7,8-dihydro-1,6-naphthyridin-6(5H)-yl)-2,8,9-trimethyl-4H-pyrimido[1,2-b]pyridazin-4-one] | 92% | 102 nM |
| Cc1cc(=O)n2nc(N3CCc4ncc(-c5cncc(F)c5)cc4C3)c(C)c(C)c2n1 [Compound 1-134, 7-(3-(5-fluoropyridin-3-yl)-7,8-dihydro-1,6-naphthyridin-6(5H)-yl)-2,8,9-trimethyl-4H-pyrimido[1,2-b]pyridazin-4-one] | 88% | 700 nM |
| COc1ccccc1-c1cnc2c(c1)CN(c1nn3c(=O)cc(C)nc3c(C)c1C)CC2 [Compound 1-250, 7-(3-(2-methoxyphenyl)-7,8-dihydro-1,6-naphthyridin-6(5H)-yl)-2,8,9-trimethyl-4H-pyrimido[1,2-b]pyridazin-4-one] | 79% | 1010 nM |
| Cc1cc(=O)n2nc(N3CCc4ncc(-c5cnn(CC(F)(F)F)c5)cc4C3)c(C)c(C)c2n1 [Compound 1-184, 2,8,9-trimethyl-7-(3-(1-(2,2,2-trifluoroethyl)-1H-pyrazol-4-yl)-7,8-dihydro-1,6-naphthyridin-6(5H)-yl)-4H-pyrimido[1,2-b]pyridazin-4-one] | 80% | 1260 nM |
| Cc1cc(=O)n2nc(N3CCc4ncc(N5C[C@@H](C)O[C@@H](C)C5)cc4C3)c(C)c(C)c2n1 [Compound 2-38, 7-(3-((2R,6S)-2,6-dimethylmorpholino)-7,8-dihydro-1,6-naphthyridin-6(5H)-yl)-2,8,9-trimethyl-4H-pyrimido[1,2-b]pyridazin-4-one] | 76% | 1300 nM |
| Cc1c(N2CCc3ncc(N4CCC(F)(F)CC4)cc3C2)nn2c(=O)cc(C(F)F)nc2c1C [Compound 2-48, 2-(difluoromethyl)-7-(3-(4,4-difluoropiperidin-1-yl)-7,8-dihydro-1,6-naphthyridin-6(5H)-yl)-8,9-dimethyl-4H-pyrimido[1,2-b]pyridazin-4-one] | 79% | 334 nM |
